Patent US20040176323A1, “Pharmaceutical composition comprising lysophophatidic acid” (priority 2001, published 2004)

Tests used:
[1] = system: ICR mice with sepsis induced by cecal ligation and puncture; assay: Cecal ligation and puncture (CLP) model test, survival in sepsis; type: in vivo; details: 5 ICR mice; for 48-hour survival rate (%) (Mice survived/All mice): control 0% (0/5); for 24-hour survival rate (%) (Mice survived/All mice): control 20% (1/5)
Excerpt: Cecal Ligation and Puncture (CLP) Model Test
To verify excellent preventive and therapeutic effects of LPA as an effective ingredient of the pharmaceutical composition according to the present invention on sepsis, this test using CLP model animals in which sepsis was caused by inducing peritonitis by cecal ligation and puncture was undertaken.
After anesthetizing 15 ICR mice (weighing about 25 to 30 g; availably from MJ Ltd.) with pentobarbital, a right region of their abdomen was excised in 1 cm length to expose cecum, followed by ligating the lower area of ileocecal valve, making six punctures on the cecum with a 21 gauge needle and then suturing the abdomen, thereby inducing sepsis with the model mice.
At 2 and 4 hours after suturing, LPA(oleoyl-sn-glycerol-3-phosphate; Sigma Co.) dissolved in 10% DMSO solution was intraperitoneally administered to 5 ICR mice at a dose of about 10 mg/kg (Group A) and to another 5 ICR mice at a dose of about 50 mg/kg (Group B), and only a 10% DMSO solution was intraperitoneally administered to the other 5 ICR mice (Control group). The survival rates of ICR mice in groups A and B and control group were investigated in course of time.

[2] = system: Sprague-Dawley rats with permanent focal cerebral ischemia by occlusion of middle cerebral artery; assay: Rat model with permanent focal cerebral ischemia by occlusion of middle cerebral artery, infarct area and volume; type: in vivo; details: 20 mg/kg subcutaneously at 1 hour before and 2 and 6 hours after surgery
Excerpt: To verify excellent preventive and therapeutic effects of LPA as an effective component of the pharmaceutical composition according to the present invention on stroke, the test using rat models induced with permanent focal cerebral ischemia by occlusion of middle cerebral artery, designed as follows, was undertaken.
Rat Model Induced with Permanent Focal Cerebral Ischemia by Occulusion of Middle Cerebral Artery
12 male Sprague-Dawley rats weighing about 250 to 269 g, were anaesthetized through inhalation of a mixed solution of 70% […] and 30% oxygen gas, the solution containing 2% isoflurane (Choongwae Pharma Corp., Korea), and then subjected to a slightly modified Nagasawa and Kogure's method (Nagasawa H and Kogure K (1989) Correlation between cerebral blood flow and histologic changes in a new rat model of middle cerebral artery occlusion. Stroke 20: 1037-1043), leading to occlusion of their right middle cerebral artery. Specifically, rats were anaesthetized, and then their cervix was incised along by the middle line of their neck. Then, after separately ligating their right common carotid artery and their external carotid artery carefully so as not to cause damage to their vagus nerve, the junction of their internal carotid artery were slightly cut and then a 17 mm long silicon rubber cylinder was carefully inserted thereinto, followed by ligating the internal carotid artery on the inserted cylinder. […]
At 24 hours after surgery, the rats of the test group and the control group were decapitated, and their brains were rapidly extracted, followed by washing with a cold saline solution. […] After the brain sections stained with TTC were fixed with 10% phosphate-buffered formalin, the area of cerebral infarcts on the posterior side of each section, which was visualized as an area of unstained tissue, was determined separately for cortex and striatum, by using an image analyzer.
In order to correct a change in the area of cerebral infarcts due to cerebral edema, the area of cerebral infarcts on each section was determined by subtracting the […] area in the right hemisphere with occluded middle cerebral artery from the area of the left hemisphere with unoccluded middle cerebral artery. Total areas of cerebral infarcts, obtained by summing the areas of infarcts in cortex and striatum that were measured at each brain section, were averaged, and the results were shown in FIG. 1. […]

[3] = Group A: about 10 mg/kg intraperitoneally at 2 and 4 hours after suturing
[4] = Group B: about 50 mg/kg intraperitoneally at 2 and 4 hours after suturing
[5] = 24 hours after surgery, mean±standard deviation, 4 test rats, p<0.001

oleoyl-sn-glycerol-3-phosphate [LPA]
48-hour survival rate (%) (Mice survived/All mice) [1, 3]: 40% (2/5)
24-hour survival rate (%) (Mice survived/All mice) [1, 3]: 60% (3/5)
48-hour survival rate (%) (Mice survived/All mice) [1, 4]: 40% (2/5)
24-hour survival rate (%) (Mice survived/All mice) [1, 4]: 60% (3/5)
reduction of the infarcted volume in cortex compared with control group rats [2, 5]: 44.6±3.6%
reduction of the infarcted volume in striatum compared with control group rats [2, 5]: 55.3±21.0%
reduction of total infarcted volume compared with control group rats [2, 5]: 47.8±7.1%
total area of infarcts (cortex and striatum) compared to control group rats ([2]; measured 24 hours after surgery, FIG. 1): noticeable reduction in total area of infarcts
